Where a name gives a salt, the structure may show the parent alone.

The values below come from patent US5366992A, “Benzoic acid substituted derivatives having cardiovascular activity” (Italfarmaco S.p.A., priority 1990, dated 1994).

For assay [1], the system named is noradrenaline-contracted rat aortha strip. The assay is described as follows: in vitro vasorelaxing activity, noradrenaline-contracted rat aortha strip. Particulars: concentration inhibiting by 50% the contraction of noradrenaline-contracted rat aortha strip. The method, then:
The in vitro vasorelaxing activity of the compounds of the present invention was evaluated in the test of the noradrenaline-contracted rat aortha strip. The test was carried out according to the procedure described by K. Murakami et al., Eur. J. Pharmacol., 141, 195, 1987. The IC50 values, i.e. the concentration of active substance, expressed in mol/1, inhibiting by 50% the aortha strip contraction, were evaluated.

The subject of assay [2] is Sprague Dawley anesthetized rats. The assay is described as follows: in vivo antianginal activity, Arg-vasopressin-induced coronaric spasm (T wave increase) in anesthetized rats. Also on record: species or system Sprague Dawley rat. Particulars: 3 mg/kg through gastric probe, one hour before i.v. Arg-vasopressin (1 I.U./kg). Here is the method: In vivo antianginal activity was evaluated in Sprague Dawley anesthetized rats of 350-400 g mean weight, according to the procedure by M. Leitold et al., Arzneim. Forsch. 36, 1454, 1986. The test was carried out by intravenously administering to the animal one I.U./kg (equivalent to 3 mg/kg) of Arg-vasoprexine inducing a choronaric spasm which can be reproduced and electrocardiographically evidenced by an increase in the T wave. The compounds of the invention were administered through a gastric probe at a dose of 3 mg/kg, one hour before administering Arg-vasoprexine.The antianginal effect was expressed as percent inhibition of the increase in T wave versus controls.

`CC(=O)Oc1cccc(C(=O)NCCO[N+](=O)[O-])c1` [Example 1, 3-Acetoxy-N-(2-nitroxyethyl)-benzamide] displayed a half-maximal inhibitory concentration (IC50) in assay [1] of 160 nM.
As to `O=C(NCCO[N+](=O)[O-])c1ccccc1O` [9 A], the IC50 in assay [1] came out at 160 nM. For the same compound, in assay [2], the “% Inhibition of the increase in T waves versus controls” value (from here on “% Inhibition of the increase”) stood at 42%.
`CC(=O)Oc1ccccc1C(=O)NCCCCCO[N+](=O)[O-]` [4 B] gave a half-maximal inhibitory concentration (IC50) in assay [1] of 110 nM. Also, in assay [2], the “% Inhibition of the increase” value is 53%.
For the compound `CC(=O)Oc1cccc(C(=O)NCCCCCO[N+](=O)[O-])c1` [3 B], in assay [1], the IC50 is 1200 nM.
Consider `O=C(NCCO[N+](=O)[O-])c1ccccc1OC(=O)C1CSCN1` (centres unmarked) [Example 9, N-(2-Nitroxyethyl)-2-[(4-thiazolidinyl)carbonyloxy]benzamide hydrochloride], for which the concentration for half-maximal inhibition (IC50) in assay [1] was 540 nM.
In assay [1], `CC(=O)Oc1ccc(C(=O)NCCO[N+](=O)[O-])cc1` [Example 2, 4-Acetoxy-N-(2-nitroxyethyl)-benzamide] had an IC50 of 2300 nM. In addition, in assay [2], the “% Inhibition of the increase” value is reported as 55%.
`CC(=O)Oc1ccccc1C(=O)OCCO[N+](=O)[O-]` [8 B]: half-maximal inhibition in assay [1] (IC50) required 13 nM. In addition, in assay [2], the “% Inhibition of the increase” value amounted to 61%.
